Data from paper PMC11705763, “Tumor-associated antigen prediction using a single-sample gene expression state inference algorithm” (Cell Reports Methods, 2024).

Key:
HLA-A02:01 = HLA-A02:01 (Homo sapiens, UniProt P04439, D140Y/D185E/D98H/E176V/E277Q/G131W/G231S/I119V/I121R/I166T/I218V/L300P/L318F/N151K/N90K/P208A/P217A/Q86G/Q94H/R138H/R169H/T345S); experiment: Peptide-MHC tetramer exchange assay (competitive peptide binding, QuickSwitch Quant HLA-A02:01 tetramer); conditions: percentage of replacement of the exchangeable peptide by the test peptide
[1] = tested on: CD8+ T cell cultures / PBMCs from healthy donors; experiment: IFN-gamma ELISpot assay; assay type: cell-based, human; design: Donor1_value / Donor3_value / Donor4_value: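 Spot-forming units per 100000 cells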; conditions: IFN-gamma ELISpot result; for Donor1_value: healthy donor 1; for Donor2_value: healthy donor 2; for Donor3_value: healthy donor 3; for Donor4_value: healthy donor 4;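 on Donor2 value: Spot-forming units per 100000 cells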
From the text: We experimentally assessed the binding affinity of the 38 peptides through a competitive peptide binding assay (STAR Methods). […] Subsequently, we investigated the immunogenicity of these peptides using an interferon (IFN)-gamma ELISpot assay (STAR Methods). […] These peptides represent promising candidates for further investigation as potential immunotherapy targets. Peripheral blood mononuclear cells (PBMCs) from healthy donors were isolated at Zhongshan Hospital, Fudan University using Lymphoprep (07851, Stemcell) and cultured with ImmunoCult-XF T cell Expansion Medium (10981, Stemcell) supplemented with human recombinant IL-2 (78036, Stemcell). ImmunoCult Human CD3/CD28 T cell Activator (10971, Stemcell) was added to the cell suspension, which was then incubated for 3 days. Subsequent expansion of the cell suspension was carried out every two days as per manufacturer's instructions. The entire process was approved by the Institutional Review Board of Zhongshan Hospital, Fudan University (B2024-412). ELISPOT plates (2110003, […]) were pretreated with PBS before dispensing cell suspensions (nearly 1×10^5 cells) with synthesized peptide (10 μg/mL) into each well. After incubation at 37°C in a CO2 incubator for 20 h, plates were washed and incubated with anti-human IFN-γ followed by Streptavidin-HRP. Staining of Streptavidin-HRP was performed using AEC solution, and the reaction was stopped by rinsing with cold tap water. ELISPOT plates were scanned and counted using an ImmunoSpot plate reader and associated software from Cellular Technologies, Ltd.

Sequence | Q1_Replacement_Percentage (HLA-A02:01) [%] | Donor1_value [1] | Donor2_value [1] | Donor3_value [1] | Donor4_value [1]
AMLKNTVPI | 89.9 | 0 | 0 | 18 | 0
FLAKLNNTV | 88.1 | 2 | 56 | 18 | 0
FLLLVDAAV | 83.5 | 571 | 34 | 0 | 12
FLLLVDAAVQ | 29.3 | 0 | 31 | 16 | 0
FLNEACLFEI | 92 | 606 | 0 | 7 | 10
FLRFANYCRI | 30 | 0 | 8 | 8 | 0
FLSTLTTFI | 89.1 | 0 | 41 | 15 | 0
FLTSGEDAV | 98.3 | 494 | 21 | 0 | 0
FLWGPRAHSEV | 90.4 | 558 | 0 | 10 | 18
FLYEVFAQL | 92.7 | 654 | 7 | 4 | 0
GLAEYLFDKLTL | 89.8 | 584 | 0 | 9 | 0
GLLMPLLGV | 91.1 | 521 | 32 | 1 | 11
GLLMPLLGVI | 91.4 | 631 | 10 | 3 | 0
GLLMPLLGVIFL | 78.9 | 4 | 33 | 8 | 0
ILFGISLREV | 96.2 | 0 | 24 | 20 | 8
KLLMPLLGV | 97.9 | 384 | 0 | 0 | 13
KMKVLEFLAKV | 42.8 | 0 | 2 | 18 | 0
KVADLVGFLL | 84.3 | 570 | 0 | 2 | 0
KVLEFLAKL | 88.2 | 545 | 58 | 12 | 0

Sequence | Q1_Replacement_Percentage (HLA-A02:01) [%] | Donor1_value [1] | Donor2_value [1] | Donor3_value [1] | Donor4_value [1]
KVLEYVIKV | 80.8 | 0 | 23 | 19 | 0
LLASYNDDDIYL | 98.2 | 426 | 0 | 3 | 8
LLFGLALIEV | – | 28 | 42 | 7 | 0
LLMPLLGVI | 96.3 | 627 | 0 | 11 | 48
LLQISNWFI | 32.7 | 30 | 0 | 30 | 0
LQILQDGQFLV | 81.9 | 0 | 0 | 32 | 0
LVLGTLEEV | 85.1 | 666 | 17 | 15 | 11
QILQDGQFLV | 94 | 451 | 37 | 0 | 17
RKLLMPLLGV | 22.9 | 0 | 0 | 16 | 0
RLELVFGL | 23.4 | 0 | 0 | 8 | 0
SLLDLYQLA | 91.5 | 0 | 1 | 0 | 0
VIWDVLSGI | 95.5 | 678 | 0 | 0 | 1
VLLPASLFI | 94.8 | 634 | 26 | 0 | 0
YIYDILLPV | 88.9 | 17 | 54 | 19 | 0
YLHEQVKTI | 83.5 | 0 | 59 | 24 | 9
YMLWFLLRHV | 32.4 | 0 | 0 | 29 | 0
YRLADHVGCV | 56.3 | 0 | 30 | 9 | 0
YTLDEKVAEL | 91.1 | 640 | 29 | 2 | 0
YVKVLEYVIKV | 14.7 | 0 | 56 | 17 | 0
